{
  "source": "patent US20130303377A1",
  "about": "“USE OF SINGLE AMINO ACIDS AT LOW CONCENTRATIONS FOR INFLUENCING THE LIFE PROCESSES OF CROPS” (GLOBACHEM, priority 2010, published 2013)",
  "key": {"[1]": {"tested_on": "Jonagold", "assay": "Improvement of the coloring with apple, Example 2", "assay_type": "in vivo", "procedure": "In an experiment similar to Example 1, glutamine was used 2 times on Jonagold, the first time 14 days before the picking and then a few days before the picking. The dosage of the treatment was this time 2 times 15 g/ha (each time with a concentration of 50 ppm wt in an atomisation of each time 300 liter of water per hectare). The % first picking was determined and is shown in Table 2, in comparison with a control test without treatment."}, "[2]": {"tested_on": "mature apple trees of the variety Jonagold, Jonagored mutant", "assay": "Increase of both the yield and the coloring with apple, Example 3", "assay_type": "in vivo", "procedure": "This experiment was performed on mature apple trees of the variety Jonagold, Jonagored mutant. Unlike the two previous trials, the focus here is primarily on increasing the yield. To achieve this, the treatments have to be started much earlier in the season. The dose is hereby lower than in the two previous applications because the goal is here fruit set and growth inhibition, instead of coloring. One could suffice with two treatments, at the start of the growing season, but several applications over the entire growing season gives a more certain result. The applications in this test were started around the end of flowering and were repeated every 7 to 14 days, depending on the weather conditions. There were in total 7 treatments, more precisely on April 24, May 7, May 14, May 20, June 9, June 16 and June 24. The sprayings were performed with an atomiser.\nGlutamine, each time at a concentration of 50 ppm wt in 300 liter water/ha, and thus a dose of 15 g/ha, was applied both separately and in combination with S-abscisic acid (ABA). In the combination test, ABA was administered at the first 2 sprayings of the season, and always at a concentration of 3.3 ppm in 300 l water/ha spraying liquid, which corresponds to a dosage of 1.0 g/ha of ABA. At the end of the season, the extension of the shoots was measured and the number of fruits per tree determined. Shortly after the end of the sprayings, on June 25, the average fruit diameter was also determined."}, "[3]": {"tested_on": "mature apple trees of the variety Jonagold (mutant King)", "assay": "Improvement of the coloring with apple, Example 1 (glutamine sprayed before picking)", "assay_type": "in vivo", "details": "for kg 1st picking: colored fruits; for Fruit weight: average over the total harvest", "procedure": "This experiment was performed on mature apple trees of the variety Jonagold (mutant King). The sprayings were performed with an atomizer at 300 liter of water/ha. The spray liquid used contained in the first test 300 ppm wt of glutamine and in the second test with a multiple treatment each time 150 ppm wt glutamine. The spray liquid further contained surfactants and a UV filter.\napples of the trees in the test field were harvested in 3 times. Glutamine was used as active substance, in a first test 2 weeks before the expected first picking date, and in the second test first 2 weeks and then again 1 week before the expected harvest date. The dosages used are shown below. At harvest, the total yield, the kilos colored fruits which could be harvested in the first picking and the average fruit weight over the total harvest (in grams per apple fruit) were determined. The results are shown in Table 1, and compared with a control without treatment."}, "[4]": {"tested_on": "Jonagored", "assay": "Improvement of the coloring with apple, Example 4", "assay_type": "in vivo", "details": "glutamine 2.5 g/ha, 4 days before the pick", "source_text": "In this experiment, glutamine was applied 4 days before the pick on a plot of Jonagored, and in a concentration of 8.3 ppm wt in 300 l/ha, which is equivalent to a dose of 2.5 g/ha of glutamine. In table 4 below the % of first picking is shown."}, "[5]": {"tested_on": "plants", "assay": "Strength of the response to one single amino acid as a function of dosage", "assay_type": "in vivo", "details": "compared to the intermediate range of 5-15 g/ha", "source_text": "The location of the peaks of the pattern, i.e. at which concentrations the strongest effects could be recorded, and the location of the valley between two peaks, i.e. the range wherein the response was again a little less, appeared however to depend on the choice of the amino acid and of the life process which one wishes to influence."}, "[6]": {"tested_on": "wheat seedlings", "assay": "Growth inhibition with wheat", "assay_type": "in vivo", "details": "for Growth increase (cm): one treatment; for Growth increase (cm) / % wrt control: after 10 days; for % wrt control: growth increase", "procedure": "This experiment was performed in four repetitions on wheat seedlings. Per repetition six seedlings were sown in a jar and monitored. When the seedlings were about 15 cm high, they were treated once with the following treatments, and after 10 days the growth increase was measured. The dose is given in g/ha whereby the conversion from the concentration was done with a use of 300 l/ha."}, "[7]": {"tested_on": "barley seedlings", "assay": "Growth inhibition with barley", "assay_type": "in vivo", "details": "250 g/ha, after 8 days", "procedure": "This experiment was performed in four repetitions on barley seedlings. Per repetition, six seedlings were sown in a jar and monitored. When the seedlings were about 15 cm high, they were treated once with the following treatments, and after 8 days the growth increase was measured. The dose is given in g/ha whereby the conversion from the concentration was done at a use of 300 I/ha."}, "[8]": {"tested_on": "plants", "details": "only glutamic acid; WO 00/25582; cited from earlier work"}, "[9]": {"tested_on": "plants", "details": "500 ppm of glutamic acid; EP 1124419; cited from earlier work"}, "[10]": {"details": "glutamine 2 × 45 g/ha, 2 weeks and 1 week before expected harvest date"}, "[11]": {"details": "glutamine 90 g/ha once, 2 weeks before expected first picking"}},
  "data": [
    {"smiles": "NC(=O)CC[C@H](N)C(=O)O", "note": "[Glutamine, glutamine]", "values": [
      {"measurement": "Increase in the first picking, absolute percentage with respect to weight of total harvest", "setting": "[1]; double treatment of glutamine, versus control", "value": "around 10%"},
      {"measurement": "Increase of the first-picking portion of the harvest", "setting": "[1]; extrapolated at a Jonagold yield of 60 tons/ha", "value": "at least 6 tons/ha"},
      {"measurement": "% 1st picking", "setting": "[1]; glutamine 2 × 15 g/ha, 14 days and a few days before the picking", "value": 40, "unit": "%"},
      {"measurement": "Average Shoot length (cm)", "setting": "[2]; end of season, glutamine 15 g/ha, 7 treatments", "value": 25.6, "unit": "cm"},
      {"measurement": "Fruit diameter (mm) on June 25", "setting": "[2]; glutamine 15 g/ha, 7 treatments", "value": 43.7, "unit": "mm"},
      {"measurement": "Increase of fruits per tree versus control", "setting": "[2]; glutamine alone, 15 g/ha, 7 treatments", "value": 14, "unit": "fruits per tree"},
      {"measurement": "Increased yield", "setting": "[2]; glutamine alone, extrapolated at 1714 trees/ha and five apples per kilo", "value": "~5000", "unit": "kg/ha"},
      {"measurement": "Number of fruits", "setting": "[2]; per tree, glutamine 15 g/ha, 7 treatments from end of flowering", "value": 127},
      {"measurement": "Difference of first picking versus control", "setting": "[3]; dual treatment (2 × 45 g/ha)", "value": 3, "unit": "kg"},
      {"measurement": "Difference of first picking versus control (% of total harvest)", "setting": "[3]; dual treatment (2 × 45 g/ha)", "value": 10, "unit": "%"},
      {"measurement": "1st picking in % of the total harvest", "setting": "[3]; [10]", "value": 46, "unit": "%"},
      {"measurement": "kg (total harvest)", "setting": "[3]; [10]", "value": 39, "unit": "kg"},
      {"measurement": "kg 1st picking", "setting": "[3]; [10]", "value": 18, "unit": "kg"},
      {"measurement": "Fruit weight", "setting": "[3]; glutamine 2 × 45 g/ha", "value": 257, "unit": "g"},
      {"measurement": "1st picking in % of the total harvest", "setting": "[3]; [11]", "value": 41, "unit": "%"},
      {"measurement": "kg (total harvest)", "setting": "[3]; [11]", "value": 39, "unit": "kg"},
      {"measurement": "kg 1st picking", "setting": "[3]; [11]", "value": 16, "unit": "kg"},
      {"measurement": "Fruit weight", "setting": "[3]; glutamine 90 g/ha once", "value": 248, "unit": "g"},
      {"measurement": "Increase of first picking versus control", "setting": "[3]; single treatment (90 g/ha)", "value": 1, "unit": "kg"},
      {"measurement": "Increase of first picking versus control (% of total harvest)", "setting": "[3]; single treatment (90 g/ha)", "value": 5, "unit": "%"},
      {"measurement": "% 1st picking", "setting": "[4]", "value": 55.8, "unit": "%"}
    ]},
    {"smiles": "N[C@@H](Cc1c[nH]cn1)C(=O)O", "note": "[Histidine, histidine]", "values": [
      {"measurement": "Strength of the response as a function of dosage", "setting": "[5]", "value": "higher response in the range of 0.5-5 g/ha and in a range of 15-250 g/ha"},
      {"measurement": "Growth increase (cm)", "setting": "[6]; 2 g/ha", "value": 10.0, "unit": "cm"},
      {"measurement": "Growth increase (cm)", "setting": "[6]; 100 g/ha", "value": 10.2, "unit": "cm"},
      {"measurement": "Strength of the growth inhibitory response", "setting": "[6]; further experiments with only histidine, about 10 g/ha", "value": "less than in the tests with the lower (2 g/ha) and higher (100 g/ha) dosages"},
      {"measurement": "% wrt control", "setting": "[6]; 2 g/ha", "value": 92, "unit": "%"},
      {"measurement": "% wrt control", "setting": "[6]; 100 g/ha", "value": 94, "unit": "%"}
    ]},
    {"smiles": "CC(C)(C)C(O)(CCc1ccc(Cl)cc1)Cn1cncn1", "note": "(stereo not drawn) [Tebuconazole, tebuconazole]", "values": [
      {"measurement": "Growth increase (cm)", "setting": "[7]; one treatment", "value": 3.2, "unit": "cm"},
      {"measurement": "% wrt control", "setting": "[7]; growth increase", "value": 45, "unit": "%"}
    ]},
    {"smiles": "CCOC(=O)C1CC(=O)C(=C(O)C2CC2)C(=O)C1", "note": "(stereo not drawn) [Trinexapac-ethyl, trinexapac-ethyl, reference compound]", "values": [
      {"measurement": "Growth increase (cm)", "setting": "[6]; 250 g/ha", "value": 7.8, "unit": "cm"},
      {"measurement": "% wrt control", "setting": "[6]; 250 g/ha", "value": 72, "unit": "%"}
    ]},
    {"smiles": "N[C@@H](CCC(=O)O)C(=O)O", "note": "[glutamic acid]", "values": [
      {"measurement": "Yield of plants versus control test", "setting": "[8]", "value": "did not yield any significant improvement"},
      {"measurement": "Effect on productivity of plants", "setting": "[9]", "value": "only a small effect"}
    ]}
  ]
}
